Test results taken from patent US20160310523A1, “USE OF OXYGEN-CONTAINING GAS SOURCE” (China Medical University, priority 2015, published 2016).

Columns and labels:
blood-brain barrier [1] = experiment: Claustrophobia test in gas chamber, EBD extravasation; type: in vivo, rats; settings: breathing 100% O2 vs normal air, P>0.05, FIG. 6A
Excerpt: FIGS. 6A and 6B show the effects of increased pO2 on the blood-brain barrier permeability. FIG. 6A is a quantitative diagram showing the detection amount of EBD in different districts of the brain of the rats in the claustrophobia test. FIG. 6B is a quantitative diagram showing the detection amount of EBD in the blood of the rats in the claustrophobia test. The rats are placed in gas chambers and allowed to breathe either normal air or 100% O2, and then performing the claustrophobia test.

blood-brain barrier [2] = experiment: Hypoventilation respiratory treatment, EBD extravasation; type: in vivo, rats; settings: hypoventilation (50 BPM) with 100% O2; FIGS. 8A, 8B
Description: A regional metabolic acidosis is caused by a local brain activity, but more global […] can also be induced by a hypoventilation. Given that increased blood pO2 substantially potentiates the blood-brain barrier opening by CO2/H^+, we further examine whether increasing pO2 in the rats subjected to the hypoventilation could open the blood-brain barrier in this example. The rats are injected with EBD first, and the rats are grouped and treated with a respiratory treatment by different levels of ventilation. Next, quantifying the EBD extravasation into different districts of the brain of the rats after the respiratory treatment. The respiratory treatment are a physiologically rate, the hypoventilation and a general ventilation, wherein a respiratory rate of the physiologically rate is 90 BPM (breath per minute) by using a tracheotomy, the respiratory rate of the general ventilation is 80 BPM, and the respiratory rate of the hypoventilation is 50 BPM. […]
The data of the respiratory treatment is shown in Table 4 as follows and FIG. 8A-8C. […] FIG. 8B is a quantitative diagram showing the detection amount of EBD in different districts of the brain and the blood of the rats in the hypoventilation. FIG. 8C is a quantitative diagram showing the detection amount of EBD in different districts of the brain and the blood of the rats increased a ventilation rate.

blood-brain barrier [3] = experiment: Forced swim test, EBD extravasation after drug treatment; type: in vivo, rats; settings: EIPA 5 mg/kg i.p.; zoniporide 20 mg/kg i.p.; FIG. 4C
Description: In a forced swim test, the rats are forced to swim in an opaque tank with limited spatial information, wherein a diameter, a height and a depth of the opaque tank is 43 cm, 54 cm and 29 cm, respectively.
To examine whether the NHE contributes to metabolic blood-brain barrier disruption during stressful activity, we administer either a vehicle (i.p.) or an NHE inhibitor (i.p.) to EBD-treated rats prior to forced swimming and quantify the EBD extravasation into the brain.

[4] = Inactivity (sedation) of rats during the forced swimming test
Description: Prostaglandin and serotonin are previously implicated in stress-mediated blood-brain barrier disruption. To examine whether prostaglandin and serotonin could contribute to opening of the blood-brain barrier, the rats are treated with indomethacin (10 mg/kg, i.p.) and cyproheptadine (15 mg/kg, i.p.) and then performing the forced swimming test, wherein indomethacincan can reduce the synthesis of prostaglandin and cyproheptadine competes with serotonin in that it acts on a postsynaptic receptor.

[5] = indomethacin 10 mg/kg i.p., cyproheptadine 15 mg/kg i.p., EIPA 5 mg/kg i.p.

| Compound | EBD extravasation into the motor cortex during the forced swimming test (blood-brain barrier [3]) | sedation at the dose used ([4]; rat, in vivo) | other results |
| --- | --- | --- | --- |
| O=O [100% O2] |  |  | increase in blood-brain barrier permeability (EBD extravasation in motor cortex, caudate/putamen, hippocampus) (blood-brain barrier [1]): not significant; blood-brain barrier opening (blood-brain barrier [2]): opens the blood-brain barrier |
| CCN(c1nc(N)c(C(=O)NC(=N)N)nc1Cl)C(C)C [EIPA, Ethylisopropyl amiloride] | attenuates |  | number of the rats that remain inactive during the forced swimming test [4, 5]: 0/6; sedation at the dose used [4, 5]: not sedative |
| CN1CCC(=C2c3ccccc3C=Cc3ccccc32)CC1 [cyproheptadine] |  | marked sedation |  |
| COc1ccc2c(c1)c(CC(=O)O)c(C)n2C(=O)c1ccc(Cl)cc1 [indomethacin] |  | marked sedation |  |
| N=C(N)NC(=O)c1cnn(-c2cccc3ncccc23)c1C1CC1 [zoniporide] | attenuates |  |  |
